Source: the supplement of paper PMC8671470

Legend:
Details in all cases: 72 h
[1] = test system: myeloid leukemia patient primary cells Pat.10; assay: cell viability (% survival relative to DMSO control); higher = less cytotoxic
Procedure, shortened: (§1)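 Mononuclear cells from patients with AML or CML were thawed, purified on Ficoll and placed in RPMI 1640 with 10% FBS at 10,000 cells/well on 384-well plates. The plates came pre-printed with 70 compounds at five tenfold concentrations spanning 1–10,000 nM, in duplicate, and cells were exposed for 72 h. CellTiter-Glo gave viability, scaled between DMSO wells and wells with 10 μM proteasome inhibitor. Where reported, area under the curve was obtained from log-logistic fits with four parameters using the drc and PharmacoGx R packages.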

[2] = test system: myeloid leukemia patient primary cells Pat.11; assay: as above
Procedure, shortened: as §1

[3] = test system: myeloid leukemia patient primary cells Pat.12; assay: as above
Procedure, shortened: as §1

[4] = test system: myeloid leukemia patient primary cells Pat.13; assay: as above
Procedure, shortened: as §1

[5] = test system: myeloid leukemia patient primary cells Pat.14; assay: as above
Procedure, shortened: as §1

[6] = test system: myeloid leukemia patient primary cells Pat.15; assay: as above
Procedure, shortened: as §1

[7] = test system: myeloid leukemia patient primary cells Pat.1; assay: as above
Procedure, shortened: as §1

[8] = test system: myeloid leukemia patient primary cells Pat.2; assay: as above
Procedure, shortened: as §1

[9] = test system: myeloid leukemia patient primary cells Pat.3; assay: as above
Procedure, shortened: as §1

[10] = test system: myeloid leukemia patient primary cells Pat.4; assay: as above
Procedure, shortened: as §1

[11] = test system: myeloid leukemia patient primary cells Pat.5; assay: as above
Procedure, shortened: as §1

[12] = test system: myeloid leukemia patient primary cells Pat.6; assay: as above
Procedure, shortened: as §1

[13] = test system: myeloid leukemia patient primary cells Pat.7; assay: as above
Procedure, shortened: as §1

[14] = test system: myeloid leukemia patient primary cells Pat.8; assay: as above
Procedure, shortened: as §1

[15] = test system: myeloid leukemia patient primary cells Pat.9; assay: as above
Procedure, shortened: as §1

[16] = test system: HL-60; assay: cell viability (% survival relative to DMSO control); higher = less cytotoxic
Procedure, shortened: (§2)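 In 384-well plates, the full library was rescreened in duplicate on HL-60 cells in RPMI 1640 with 10% FBS, at 1–10,000 nM in five tenfold concentrations, for 72 h at 37 °C, 5% CO2. Each run also held DMSO or 100 nM of one of three metabolic inhibitors. Viability was measured by CellTiter-Glo and normalised to DMSO wells and to wells with proteasome inhibitor, present at 10 μM. Any area under the curve comes from four-parameter log-logistic fitting with drc and PharmacoGx.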

[17] = test system: HL-60; assay: area under dose-response curve (viability, 1 nM-10 uM) (fraction (0-1)); higher = more sensitive
Procedure, shortened: as §2

Cc1c2c(=O)n(-c3ccccc3Cl)[nH]c2cc(=O)n1Cc1ccccn1
cell viability [%]
Details | 1 nM | 10 nM | 100 nM | 1000 nM | 10000 nM
[1] | 27.2 | 64.5 | 42.2 | 86.1 | 42.3
[2] | 88 | 95.7 | 88.1 | 99.3 | 99.1
[3] | 89.5 | 97.6 | 99.3 | 88.3 | 92.2
[4] | 66.5 | 80 | 92.6 | 88.9 | 92.5
[5] | 28.5 | 69.8 | 64.5 | 99.6 | > 100
[6] | 77.3 | 83.4 | 81.8 | 95.5 | 93
[7] | 53.7 | 89.9 | 91.5 | 96.7 | 85.5
[8] | 86.2 | 92.7 | 88.6 | 94.6 | > 100
[9] | 25.8 | 94.3 | 92.2 | > 100 | > 100
[10] | 63.6 | 90.8 | 81.5 | 98.5 | 72.8
[11] | 3.33 | 9.25 | 36.7 | 81.3 | 85.9
[12] | 84.6 | 91.1 | 91.7 | > 100 | > 100
[13] | 13.2 | 82.9 | 63.7 | 91 | > 100
[14] | 79.7 | 92.3 | 86.6 | 96.9 | 75.9
[15] | 1.24 | 62.4 | 54.9 | 100 | 100

C[C@H]1c2cccc(O)c2C(=O)C2C(=O)[C@]3(O)C(=O)C(C(N)=O)C(=O)[C@@H](N(C)C)[C@@H]3[C@@H](O)[C@@H]21 (some centres undefined) [Doxycycline]
cell viability [%], [16]
Details | 0.001 µM | 0.01 µM | 0.1 µM | 1 µM | 10 µM
co-treatment: AZD3965 100 nM | 92.6 | 97.9 | 99.6 | 96.7 | 113
co-treatment: DMSO vehicle | 100 | 101 | 104 | 102 | 114.8
co-treatment: GSK2194069 100 nM | 93.3 | 96 | 99.5 | 94.8 | 108.3
co-treatment: pictilisib 100 nM | 91.7 | 98.48 | 99.2 | 102 | 96.9

[17]
Details | area under dose-response curve
co-treatment: AZD3965 100 nM | < 0.0301
co-treatment: DMSO vehicle | < 0.0301
co-treatment: GSK2194069 100 nM | < 0.0301
co-treatment: pictilisib 100 nM | < 0.0301

CCCCCOC(=O)Nc1nc(=O)n([C@@H]2O[C@H](C)[C@@H](O)[C@H]2O)cc1F [Capecitabine]
cell viability [%], [16]
Details | 0.001 µM | 0.01 µM | 0.1 µM | 1 µM | 10 µM
co-treatment: AZD3965 100 nM | 103 | 95.72 | 109 | 102 | 96.6
co-treatment: DMSO vehicle | 98.8 | 100.39 | 106 | 99.7 | 98.7
co-treatment: GSK2194069 100 nM | 103 | 95.88 | 99.36 | 102 | 95.6
co-treatment: pictilisib 100 nM | 104 | 96.7 | 95.4 | 108 | 113

[17]
Details | area under dose-response curve
co-treatment: AZD3965 100 nM | < 0.0301
co-treatment: DMSO vehicle | < 0.0301
co-treatment: GSK2194069 100 nM | < 0.0301
co-treatment: pictilisib 100 nM | < 0.0301

O=c1cc(-c2ccccc2)oc2c1ccc1ccccc12 [Alpha-Naphtoflavone]
cell viability [%], [16]
Details | 0.001 µM | 0.01 µM | 0.1 µM | 1 µM | 10 µM
co-treatment: AZD3965 100 nM | 103 | 99 | 102 | 100.7 | 101.2
co-treatment: DMSO vehicle | 102 | 99.7 | 97.6 | 98.3 | 101
co-treatment: GSK2194069 100 nM | 98.2 | 101 | 110 | 99.9 | 98.3
co-treatment: pictilisib 100 nM | 96.8 | 101.3 | 99.3 | 93 | 90

[17]
Details | area under dose-response curve
co-treatment: AZD3965 100 nM | < 0.0301
co-treatment: DMSO vehicle | < 0.0301
co-treatment: GSK2194069 100 nM | < 0.0301
co-treatment: pictilisib 100 nM | < 0.0301

OC[C@H]1O[C@@H](n2cnc3c2N=CNC[C@H]3O)C[C@@H]1O [Pentostatin]
cell viability [%], [16]
Details | 0.001 µM | 0.01 µM | 0.1 µM | 1 µM | 10 µM
co-treatment: AZD3965 100 nM | 97.8 | 105 | 100 | 102 | 100.2
co-treatment: DMSO vehicle | 92.3 | 105 | 94.9 | 106 | 102
co-treatment: GSK2194069 100 nM | 86.6 | 101 | 98.8 | 101 | 93.96
co-treatment: pictilisib 100 nM | 89.2 | 102 | 91.2 | 103 | 96.2

[17]
Details | area under dose-response curve
co-treatment: AZD3965 100 nM | < 0.0301
co-treatment: DMSO vehicle | < 0.0301
co-treatment: GSK2194069 100 nM | < 0.0301
co-treatment: pictilisib 100 nM | < 0.0301

Cc1c(Cl)cccc1S(=O)(=O)Nc1nc(CC(=O)N2CCN(C)CC2)cs1 [BVT-2733]
cell viability [%], [16]
Details | 0.001 µM | 0.01 µM | 0.1 µM | 1 µM | 10 µM
co-treatment: AZD3965 100 nM | 101.68 | 102 | 97.2 | 98.13 | 99.4
co-treatment: DMSO vehicle | 101 | 103.3 | 98.9 | 98.1 | 98.8
co-treatment: GSK2194069 100 nM | 103.6 | 105 | 97 | 88.4 | 99.66
co-treatment: pictilisib 100 nM | 96.1 | 99.8 | 96.6 | 87.2 | 97.9

[17]
Details | area under dose-response curve
co-treatment: AZD3965 100 nM | < 0.0301
co-treatment: DMSO vehicle | < 0.0301
co-treatment: GSK2194069 100 nM | < 0.0301
co-treatment: pictilisib 100 nM | < 0.0301

Cc1cc(C(=O)NNCc2ccccc2)no1 [Isocarboxazid]
cell viability [%], [16]
Details | 0.001 µM | 0.01 µM | 0.1 µM | 1 µM | 10 µM
co-treatment: AZD3965 100 nM | 103 | 103 | 94.9 | 99.03 | 101
co-treatment: DMSO vehicle | 102 | 101 | 96.3 | 99.7 | 100
co-treatment: GSK2194069 100 nM | 101 | 102 | 87 | 102 | 98.2
co-treatment: pictilisib 100 nM | 102 | 96.8 | 86.6 | 103 | 90

[17]
Details | area under dose-response curve
co-treatment: AZD3965 100 nM | < 0.0301
co-treatment: DMSO vehicle | < 0.0301
co-treatment: GSK2194069 100 nM | < 0.0301
co-treatment: pictilisib 100 nM | < 0.0301
